Measured values: US9505730B2, “Mineralocorticoid receptor antagonists” (Merck Sharp & Dohme Corp., priority 2011, dated 2016)

target: T1, full-length human Mineralocorticoid Receptor (MR) (Homo sapiens, UniProt P08235); assay: human MR NH Pro assay (PathHunter Protein:Protein interaction assay, MR antagonism); assay type: cell-based; conditions: PathHunter CHO-K1 cells overexpressing human MR; aldosterone 0.3 nM; 6 hours at 37° C.; luminescence; read-out: IC50 rating
T1 construct: host or cells: PathHunter CHO-K1 cells
T1 sequence (P08235 1-984): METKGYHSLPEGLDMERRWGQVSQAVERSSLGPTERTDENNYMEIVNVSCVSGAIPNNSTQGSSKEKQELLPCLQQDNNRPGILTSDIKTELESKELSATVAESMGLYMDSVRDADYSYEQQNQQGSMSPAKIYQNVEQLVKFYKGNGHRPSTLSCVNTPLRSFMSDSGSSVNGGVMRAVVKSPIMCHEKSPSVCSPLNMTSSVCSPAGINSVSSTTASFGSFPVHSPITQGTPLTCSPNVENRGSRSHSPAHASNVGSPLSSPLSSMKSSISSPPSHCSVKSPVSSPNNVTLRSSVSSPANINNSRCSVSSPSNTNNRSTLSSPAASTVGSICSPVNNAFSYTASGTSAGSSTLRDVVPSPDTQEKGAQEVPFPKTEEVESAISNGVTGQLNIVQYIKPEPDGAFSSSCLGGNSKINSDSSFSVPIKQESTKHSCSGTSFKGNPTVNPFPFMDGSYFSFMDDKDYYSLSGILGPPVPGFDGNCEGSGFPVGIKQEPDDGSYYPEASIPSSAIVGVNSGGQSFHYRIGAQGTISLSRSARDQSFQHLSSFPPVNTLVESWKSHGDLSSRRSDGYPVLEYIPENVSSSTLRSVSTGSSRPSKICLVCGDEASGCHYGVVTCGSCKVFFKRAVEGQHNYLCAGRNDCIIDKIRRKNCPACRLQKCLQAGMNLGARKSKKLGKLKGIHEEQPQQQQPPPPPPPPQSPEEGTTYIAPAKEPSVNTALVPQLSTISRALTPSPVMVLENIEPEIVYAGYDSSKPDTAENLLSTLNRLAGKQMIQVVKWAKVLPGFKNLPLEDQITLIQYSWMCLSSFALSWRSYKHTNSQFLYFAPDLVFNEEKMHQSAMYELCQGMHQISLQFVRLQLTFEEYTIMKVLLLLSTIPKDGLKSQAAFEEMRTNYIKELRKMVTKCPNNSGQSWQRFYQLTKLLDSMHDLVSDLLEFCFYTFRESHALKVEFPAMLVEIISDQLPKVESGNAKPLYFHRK
Experimental: The activity of the compounds of the present invention regarding mineralocorticoid receptor antagonism was evaluated using the following assay.
Assessment of Mr Potency in Hmr Nh Pro Assay
The human MR NH Pro assay is a commercially available PathHunter™ Protein: Protein interaction assay (DiscoveRx; http://www.discoverx.com/nhrs/prod-nhrs.php) that measures the ability of compounds to antagonize full-length human Mineralocorticoid Receptor (MR) binding to a coactivator peptide. PathHunter™ CHO-K1 cells that overexpress human MR (Cat #93-0456C2, Lot No: 09B0913) were cultured in growth media (F12K w/Glutamine and phenol red (Gibco 11765-047) supplemented with 10% HI FBS (Gibco 16000); 0.25 mg/ml Hygromycin in PBS (Invitrogen 10687-010, 50 mg/ml); 100 I.U./mL and 100 μg/mL Pen/Strep (Gibco 15140-122); 0.6 mg/mL Geneticin).
Compounds were assessed for MR antagonist activity by incubating the cells with a titrating dose of compound in F12K w/Glutamine and phenol red culture media (Invitrogen 11765-047) supplemented with 1% Charcoal/Dextran Treated FBS (Hyclone #SH30068.01) and aldosterone (0.3 nM) for 6 hours at 37° C.
• F12K w/Glutamine and phenol red (Gibco 11765-047) • 10% HI FBS (Gibco 16000) • 0.25 mg/ml Hygromycin in PBS (Invitrogen 10687-010, 50 mg/ml) • 100 I.U./mL and 100 μg/mL Pen/Strep (Gibco 15140-122) • 0.6 mg/mL Geneticin (Gibco 10131, 50 mg/ml) 2. Assay media: • F12K w/Glutamine and phenol red (Invitrogen 11765-047) • 1% Charcoal/Dextran Treated FBS (Hyclone #SH30068.01) 3. 3× PathHunter Detection Reagents (Cat#93-0001) (need ˜6 ml/plate). […] Control Agonist: Aldosterone: Sigma cat #A9477 • Prepare stock solution—10 μM in DMSO kept at −20 C • for assay, dilute in assay media to 1.8 or 6 nM (6× of final concentration=about 0.3 nM to about 1.0 nM) 5. Cell line: PathHunter CHO-K1 MR cells Cat #93-0456C2, Lot No: 09B0913, from operation liquid nitrogen stock. 6. Control Antagonist: Spironolactone: Sigma #S-3378 and Eplerenone Sigma #107724-20-9 (10 mM stock concentration also prepared in DMSO and stored at −20° C.). Methods: Assay Set up and Calculations: • 1. Cells were grown in F12+FBS+Hygromycin+pen/strep+Genetin. • 2. Cells were collected with 0.05% trypsin and the cell suspension was spun and resuspended in a volume of F12+1.5% CD-FBS and counted. • 3. The cells were resuspended to 4×10^5 cells/mL. • 4. Cells were (25 μL/well) added to the wells of a 384 well plate. • 5. The plate was then incubated at 37° C. over night in a humidified incubator with 5% CO2. • 6. Test compounds were titrated starting at 4.4 mM, 10-point titration in 1:3 dilution. • 7. Aldosterone was diluted in assay media to 1.8 nM or 6 nM from 10 μM stock (final concentration to be about 0.3 nM to about 1.0 nM). Protocol for 384 well plate format: 6 hr treatment: • 1. Plated 10K exponentially growing cells/well (25 μL) resuspended in assay media to each well using the Multidrop (Thermo Electron). Use white wall, clear bottom assay plates (Costar #3570) and incubate overnight at 37° C., 5% CO2. • 2. 0.25 μL 120× test compound (final DMSO concentration should be <1%) was added to each well n=2, 10 point titrations starting at 36.7 μM final concentration. • 3. 5 μL 6× agonist (final aldosterone concentration should be about 0.3 nM to about 1.0 nM) was added to all wells using the PlateMate Plus.
(ThermoFisher) (except those wells in columns 23 and 24) • 4. 5 μL of assay media was added to all wells in column 23 and 24. • 5. Plates were incubated 6 hrs at 37° C., 5% CO2. • 6. 15 μL 3× DiscoveRx detection reagent was added to each well. • 7. Plates were incubated for 1 hour at room temperature (plates stored in the dark). • 8. Plates were read on Envision (PerkinElmer) luminesence plate reader and analyzed using ADA. LC/MS method: (LC2M_Low/Med_Positive mode). LC Conditions: 5-98% CH3CN/H2O+v 0.1% TFA over 1.25 min; Flow Rate=1.5 mL/min, UV wavelength 254 nm; Column: Waters XTerra® MS C18 3.5 μm 2.1×20 mm IS™

SMILES | IC50 [nM]
COc1cc(CNC(=O)C2(Cc3cccc(Cl)c3)OC(=O)N([C@H](C)c3ccccc3)C2=O)cc(OC)c1 (stereo partly drawn) [Compound 5, 5-(3-Chlorobenzyl)-N-(3,5-dimethoxybenzyl)-2,4-dioxo-3-[(1R)-1-phenylethyl]-1,3-oxazolidine-5-carboxamide] | 500 to 4500
COc1cc(CNC(=O)[C@@]2(Cc3ccccc3)OC(=O)N([C@@H]3CCc4ccccc43)C2=O)cc(OC)c1 [Compound 11, (5R)-5-Benzyl-3-[(1R)-2,3-dihydro-1H-inden-1-yl]-N-(3,5-dimethoxybenzyl)-2,4-dioxo-1,3-oxazolidine-5-carboxamide] | < 100
C[C@H](c1ccc(F)cc1)N1C(=O)O[C@](Cc2ccccc2)(C(=O)Nc2ccc(F)cc2)C1=O [Compound 15, (5R)-5-Benzyl-N-(4-fluorophenyl)-3-[(1R)-1-(4-fluorophenyl)ethyl]-2,4-dioxo-1,3-oxazolidine-5-carboxamide] | 100 to 500
C[C@H](c1ccc(F)cc1)N1C(=O)O[C@](Cc2ccccc2)(C(=O)Nc2cccc(F)c2)C1=O [Compound 13, (5R)-5-Benzyl-N-(3-fluorophenyl)-3-[(1R)-1-(4-fluorophenyl)ethyl]-2,4-dioxo-1,3-oxazolidine-5-carboxamide] | 100 to 500
